Measured values published in US7964623B2, “Tricyclic benzopyrane compound” (Nissan Chemical Industries Ltd., priority 2004, dated 2011).

How the values were obtained:
atrium = experiment: Effects on the atrial effective refractory period (S1-S2 extrastimulus technique during bilateral vagal nerve stimulation) in anesthetized beagles; format: in vivo; details: intravenous, from 5 minutes after administration, basic cycle length 300 msec
Method: Effects on the Effective Refractory Period
Beagles were anesthetized with pentobarbital sodium and thoracotomy was done along the median line under a respirator and the incision was made on the pericardium to expose the heart. An electrocardiogram (ECG) was recorded using bipolar electrodes attached to the surface of the right atrial free wall, right atrial auricle, and right ventricular free wall. The vagal nerves were stimulated using an electrostimulation device with Nichrome wires inserted into the vagal nerves in the neck bilaterally. The conditions for electrostimulation to the vagal nerves were set such that the RR intervals on ECG were prolonged by about 100 msec compared with those before the stimulation was started.
Atrial and ventricular effective refractory periods were determined by S1-S2 extrastimulus technique at basic cycle length of 300 msec during bilateral vagal nerve stimulation, using programmable electric stimulator. A train of 10 basic stimuli (S1) was followed by a premature extrastimulus (S2) at 2 times diastolic threshold.
For evaluation of drug effects, the atrial and ventricular effective refractory periods were determined before drug administration, then respective compound was administrated intravenously at the dose of 0.3 mg/kg or 0.6 mg/kg, and the atrial and ventricular effective refractory periods were determined from 5 minutes after the administration.
The results were shown as the prolongation time on the atrial and ventricular effective refractory periods, i.e. [effective refractory period after drug administration]−[effective refractory period before drug administration] (msec).

Cc1cc(C)c2cc3c(cc2n1)C(NCCc1ccccc1)C(O)C(C)(C)O3 (racemic) [Synthesis Example 2, (±)-trans-2,2,7,9-Tetramethyl-4-[(2-phenylethyl)amino]-3,4-dihydro-2H-pyrano[2,3-g]quinolin-3-ol]
Atrial Refractory Period (prolongation time on the atrial effective refractory period) (atrium; 0.6 mg/kg): 21 ms
melting point: 144 to 147 °C

Cc1cc(C#N)nc2cc3c(cc12)OC(C)(C)C(O)C3NCCc1ccccc1.O=C(O)/C=C\C(=O)O (racemic) [Synthesis Example 7, (±)-trans-3-Hydroxy-2,2,9-trimethyl-4-[(2-phenylethyl)amino]-3,4-dihydro-2H-pyrano[2,3-g]quinoline-7-carbonitrile 1 maleate]
Atrial Refractory Period (prolongation time on the atrial effective refractory period) (atrium; 0.6 mg/kg): 25 ms
melting point: 218 to 220 °C (dec.)

CC1(C)Oc2cc3cccnc3cc2[C@H](NCCc2ccccc2)[C@H]1O.O=C(O)/C=C\C(=O)O (relative stereo) [Synthesis Example 77, (3R*,4S*)-2,2-dimethyl-4-[(2-phenylethyl)amino]-3,4-dihydro-2H-pyrano[2,3-g]quinolin-3-ol 1 maleate]
Atrial Refractory Period (prolongation time on the atrial effective refractory period) (atrium; 0.3 mg/kg): 25 ms
melting point: 187 to 192 °C (dec.)

Cc1cc(Cl)nc2cc3c(cc12)OC(C)(C)C(O)C3NCCc1ccccc1.O=C(O)/C=C\C(=O)O (racemic) [Synthesis Example 6, (±)-trans-7-Chloro-2,2,9-trimethyl-4-[(2-phenylethyl)amino]-3,4-dihydro-2H-pyrano[2,3-g]quinolin-3-ol 1 maleate]
Atrial Refractory Period (prolongation time on the atrial effective refractory period) (atrium; 0.6 mg/kg): 20 ms
melting point: 221 to 226 °C (dec.)

Cc1cc(Cl)nc2cc3c(cc12)OC(C)(C)[C@H](O)[C@H]3NCCC1CCCCC1.Cl (relative stereo) [Synthesis Example 53, (3R*,4S*)-7-chloro-2,2,9-trimethyl-4-[(2-cyclohexylethyl)amino]-3,4-dihydro-2H-pyrano[2,3-g]quinolin-3-ol hydrochloride]
Atrial Refractory Period (prolongation time on the atrial effective refractory period) (atrium; 0.3 mg/kg): 30 ms
melting point: 294 to 295 °C (dec.)

Cc1cc(Cl)[n+]([O-])c2cc3c(cc12)OC(C)(C)[C@H](O)[C@H]3NCCc1ccccc1.Cl (relative stereo)
melting point: 174 to 179 °C (dec.)

CCCCCN[C@H]1c2cc3nccnc3cc2OC(C)(C)[C@@H]1O.Cl (relative stereo) [Synthesis Example 63, (3R*,4S*)-2,2-dimethyl-4-pentylamino-3,4-dihydro-2H-pyrano[2,3-g]quinoxalin-3-ol hydrochloride]
Atrial Refractory Period (prolongation time on the atrial effective refractory period) (atrium; 0.3 mg/kg): 23 ms
melting point: 209 to 212 °C (dec.)

CC1(C)Oc2ccc3nc(Cl)ccc3c2[C@@H](NCCc2ccccc2)[C@@H]1O (racemic) [Synthesis Example 9, (±)-trans-8-Chloro-3,3-dimethyl-1-[(2-phenylethyl)amino]-2,3-dihydro-1H-pyrano[3,2-f]quinolin-2-ol]
melting point: 141 to 143 °C

CC1(C)Oc2ccc3ncccc3c2C(NCCc2ccccc2)C1O (racemic) [Synthesis Example 8, (±)-trans-3,3-Dimethyl-1-[(2-phenylethyl)amino]-2,3-dihydro-1H-pyrano[3,2-f]quinolin-2-ol]
Atrial Refractory Period (prolongation time on the atrial effective refractory period) (atrium; 0.6 mg/kg): 23 ms
melting point: 180 to 182 °C

CC1(C)Oc2cc3nccnc3cc2[C@H](NCCC2CCCCC2)[C@H]1O.Cl (relative stereo) [Synthesis Example 69, (3R*,4S*)-4-[(2-cyclohexylethyl)amino)]-2,2-dimethyl-3,4-dihydro-2H-pyrano[2,3-g]quinoxalin-3-ol hydrochloride]
Atrial Refractory Period (prolongation time on the atrial effective refractory period) (atrium; 0.3 mg/kg): 37 ms
melting point: 258 to 259 °C (dec.)
